Target: T1, human recombinant adenosine A3 receptors (Homo sapiens, UniProt P0DMS8)
T1 construct: host or cells: CHO-K1 (Chinese hamster ovary K1 cells)
T1 sequence (P0DMS8 1-318): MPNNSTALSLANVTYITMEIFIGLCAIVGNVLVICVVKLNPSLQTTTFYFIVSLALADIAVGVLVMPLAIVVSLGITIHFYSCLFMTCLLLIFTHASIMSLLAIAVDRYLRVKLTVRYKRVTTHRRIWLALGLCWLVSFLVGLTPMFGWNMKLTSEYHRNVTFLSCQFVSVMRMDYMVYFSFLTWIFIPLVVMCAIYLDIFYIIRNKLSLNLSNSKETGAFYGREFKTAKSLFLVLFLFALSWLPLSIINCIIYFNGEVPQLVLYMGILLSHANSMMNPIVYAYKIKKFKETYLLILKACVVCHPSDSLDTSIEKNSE
Experiment: Test for affinity for adenosine A3 receptor ([125I]AB-MECA binding to CHO-K1 cell membranes)
Conditions: for Affinity 10 μM: 10 μM trehalose compound; for Affinity 10 μM / Affinity 3 μM: 0.5 nM [125I]AB-MECA, 60 min, 25° C.; for Affinity 3 μM: 3 μM trehalose compound; for IC50: [125I]AB-MECA displacement
Method: Specifically, ovarium K1 cells of a Chinese hamster (obtained from Euroscreen S. A.; hereunder referred to as “CHO-K1”) expressing human recombinant adenosine A3 receptors were cultured in a modified HEPES buffer free of Ca^2+ and Mg^2+. Subsequently, the cultured CHO-K1 was scraped and homogenized in 50 mM of ice-cooled Tris-HCl (pH 7.4). The resulting mixture was subjected to centrifugation at 48,000×g for 15 minutes to obtain a cell membrane pellet. The obtained cell membrane pellet was washed twice with another modified HEPES buffer, and then subjected again to centrifugation. The washed cell membrane pellet was suspended again in a small quantity of 50 mM Tris-HCl (pH 7.4).
The concentration of the adenosine A3 receptor in the obtained cell membrane pellet was measured as follows. A 0.5 nM amount of [^125I] […] Thereafter, 50 mM of ice-cooled Tris-HCl (pH 7.4) was added thereto to halt the reaction, and then the cell membrane pellet was filtrated out using a glass fiber filter. The filtered cell membrane pellet was washed 3 times with an ice-cooled buffer so as to remove excessive ligands. The radioactivity in the resulting cell membrane pellet on a filter was measured using a scintillation counter (Type 1470 Automatic Counter; PerkinElmer, Inc.).
Separately, in order to measure nonspecific bindings of [^125I] AB-MECA other than to an adenosine A3 receptor, 1 μM of […] (a selective radioagonist of A3 receptor N^6-(3-iodobenzyl)-5′-(N-[…]) adenosine) was further added to the obtained suspension of the cell membrane pellet, and the same measurement was carried out as in the aforesaid binding experiment. The average specific binding value of [^125I] AB-MECA to the adenosine A3 receptor was calculated based on the results obtained in the above experiment.
Further, in a Comparative Example, the same measurement was carried out with respect to the compounds taught in Non-Patent Document 1 and Non-Patent Document 2 (in the chemical formula of Table 1, R^1=R^3=octyl, R^2=R^4=heptyl, X=X′=OH, and Y=Y′═O).

Row | Affinity 10 μM | Affinity 3 μM | IC50 [nM] | Affinity 10 μM (listed as F-5) | Affinity 10 μM (listed as F-6) | Compound
1 | 29 | – | – | – | – | CCCCCCCCC(O)C(CCCCCCC)C(=O)OCC1O[C@H](O[C@@H]2OC(COC(=O)C(CCCCCCC)C(O)CCCCCCCC)[C@@H](O)C(O)C2O)C(O)C(O)[C@@H]1O (some centres unmarked) [Comparative Example, reference compound]
2 | 97 | 54 | 2750 | – | – | CCCCCC[C@@H](O)[C@@H](CCCCC)C(=O)OC[C@H]1O[C@H](O[C@H]2O[C@H](COC(=O)[C@@H](CCCCC)[C@@H](O)CCCCCC)[C@@H](O)[C@H](O)[C@H]2O)[C@H](O)[C@@H](O)[C@@H]1O [Production Example F-13, 6-O-[(2R,3R)-3-hydroxy-2-pentylnonanoyl]-6′-O-[(2S,3S)-3-hydroxy-2-pentylnonanoyl]-α,α′-trehalose]
3 | 62 | 74 | – | – | – | CCCCCCCC(CCCCC)C(=O)OC[C@H]1O[C@H](O[C@H]2O[C@H](COC(=O)C(CCCCC)CCCCCCC)[C@@H](O)[C@H](O)[C@H]2O)[C@H](O)[C@@H](O)[C@@H]1O (stereo partly drawn) [Production Example F-11, 6,6′-bis-O-(2-pentylnonanoyl)-α,α′-trehalose]
4 | 77 | – | – | – | – | CCCCCCC[C@@H](O)[C@@H](CCCCCC)C(=O)OC[C@H]1O[C@H](O[C@H]2O[C@H](COC(=O)[C@@H](CCCCCC)[C@@H](O)CCCCCCC)[C@@H](O)[C@H](O)[C@H]2O)[C@H](O)[C@@H](O)[C@@H]1O [Production Example F-14, 6-O-[(2R,3R)-3-hydroxy-2-hexyldecanoyl]-6′-O-[(2S,3S)-3-hydroxy-2-hexyldecanoyl]-α,α′-trehalose]
5 | 69 | 29 | – | – | – | CCCCCC[C@@H](O)[C@@H](CCCCC)C(=O)NC[C@H]1O[C@H](O[C@H]2O[C@H](CNC(=O)[C@H](CCCCC)[C@H](O)CCCCCC)[C@@H](O)[C@H](O)[C@H]2O)[C@H](O)[C@@H](O)[C@@H]1O [Production Example F-15, 6,6′-bis-N-[(2R,3R)-3-hydroxy-2-pentylnonanoylamino]-6,6′-dideoxy-α,α′-trehalose]
6 | – | – | – | 83 | – | CCCCCCCC(O)C(CCCCCC)C(=O)OCC1OC(OC2OC(COC(=O)C(CCCCCC)C(O)CCCCCCC)C(O)C(O)C2O)C(O)C(O)C1O [Production Example F-5, 6,6′-bis-O-[(2R,3R)-2-hexyl-3-hydroxydecanoyl]-α,α′-trehalose]
7 | 89 | 33 | – | – | – | CCCCCCCC(CCCCC)C(=O)NCC1OC(OC2OC(CNC(=O)C(CCCCC)CCCCCCC)C(O)C(O)C2O)C(O)C(O)C1O (stereo not drawn) [Production Example F-18, 6,6′-bis-N-(2-pentylnonanoylamino)-6,6′-dideoxy-α,α′-trehalose]
8 | 66 | 65 | – | – | – | CCCCCCC(CCCCCC)C(=O)OCC1OC(OC2OC(COC(=O)C(CCCCCC)CCCCCC)C(O)C(O)C2O)C(O)C(O)C1O (stereo not drawn) [Production Example F-10, 6,6′-bis-O-(2-hexyloctanoyl)-α,α′-trehalose]
9 | – | 22 | – | – | – | CCCCCCC(CCCCCC)C(=O)NCC1OC(OC2OC(CNC(=O)C(CCCCCC)CCCCCC)C(O)C(O)C2O)C(O)C(O)C1O (stereo not drawn) [Production Example F-17, 6,6′-bis-N-(2-hexyloctanoylamino)-6,6′-dideoxy-α,α′-trehalose]
10 | 97 | 56 | 2610 | – | – | CCCCCC[C@@H](O)[C@@H](CCCCC)C(=O)OC[C@H]1O[C@H](O[C@H]2O[C@H](COC(=O)[C@H](CCCCC)[C@H](O)CCCCCC)[C@@H](O)[C@H](O)[C@H]2O)[C@H](O)[C@@H](O)[C@@H]1O [Production Example F-1, 6,6′-bis-O-[(2R,3R)-3-hydroxy-2-pentylnonanoyl]-α,α′-trehalose]
11 | 96 | 84 | – | – | – | CCCCCCC(OC)C(CCCCC)C(=O)OCC1OC(OC2OC(COC(=O)C(CCCCC)C(CCCCCC)OC)C(O)C(O)C2O)C(O)C(O)C1O [Production Example F-7, 6,6′-bis-O-[(2R,3R)-3-methoxy-2-pentylnonanoyl]-α,α′-trehalose]
12 | 99 | 97 | 459 | – | – | CCCCCC(CCCCC)C(=O)OC[C@H]1O[C@H](O[C@H]2O[C@H](COC(=O)C(CCCCC)CCCCC)[C@@H](O)[C@H](O)[C@H]2O)[C@H](O)[C@@H](O)[C@@H]1O [Production Example F-9, 6,6′-bis-O-(2-pentylheptanoyl)-α,α′-trehalose]
13 | 91 | 32 | – | – | – | CCCCCC[C@@H](O)[C@H](CCCCC)C(=O)OC[C@H]1O[C@H](O[C@H]2O[C@H](COC(=O)[C@@H](CCCCC)[C@H](O)CCCCCC)[C@@H](O)[C@H](O)[C@H]2O)[C@H](O)[C@@H](O)[C@@H]1O [Production Example F-4, 6,6′-bis-O-[(2S,3R)-3-hydroxy-2-pentylnonanoyl]-α,α′-trehalose]
14 | 86 | 57 | – | – | – | CCCCCC[C@H](O)[C@H](CCCCC)C(=O)OC[C@H]1O[C@H](O[C@H]2O[C@H](COC(=O)[C@@H](CCCCC)[C@@H](O)CCCCCC)[C@@H](O)[C@H](O)[C@H]2O)[C@H](O)[C@@H](O)[C@@H]1O [Production Example F-2, 6,6′-bis-O-[(2S,3S)-3-hydroxy-2-pentylnonanoyl]-α,α′-trehalose]
15 | 100 | 59 | – | – | – | CCCCCC[C@H](O)[C@@H](CCCCC)C(=O)OC[C@H]1O[C@H](O[C@H]2O[C@H](COC(=O)[C@H](CCCCC)[C@@H](O)CCCCCC)[C@@H](O)[C@H](O)[C@H]2O)[C@H](O)[C@@H](O)[C@@H]1O [Production Example F-3, 6,6′-bis-O-[(2R,3S)-3-hydroxy-2-pentylnonanoyl]-α,α′-trehalose]
16 | – | – | – | – | 59 | CCCCCCCC(O)C(CCCCCC)C(=O)OCC1OC(OC2OC(COC(=O)C(CCCCCC)C(O)CCCCCCC)C(O)C(O)C2O)C(O)C(O)C1O [Production Example F-6, 6,6′-bis-O-[(2S,3S)-2-hexyl-3-hydroxydecanoyl]-α,α′-trehalose]
17 | 72 | 14 | – | – | – | CCCCC(CCCC)C(=O)OC[C@H]1O[C@H](O[C@H]2O[C@H](COC(=O)C(CCCC)CCCC)[C@@H](O)[C@H](O)[C@H]2O)[C@H](O)[C@@H](O)[C@@H]1O [Production Example F-8, 6,6′-bis-O-(2-butylhexanoyl)-α,α′-trehalose]
18 | 96 | 57 | – | – | – | CCCCCCC(OC)C(CCCCC)C(=O)NCC1OC(OC2OC(CNC(=O)C(CCCCC)C(CCCCCC)OC)C(O)C(O)C2O)C(O)C(O)C1O [Production Example F-16, 6,6′-bis-N-[(2R,3R)-3-methoxy-2-pentylnonanoylamino]-6,6′-dideoxy-α,α′-trehalose]
19 | 48 | – | – | – | – | CCCCC[C@@H](O)[C@@H](CCCC)C(=O)OC[C@H]1O[C@H](O[C@H]2O[C@H](COC(=O)[C@@H](CCCC)[C@@H](O)CCCCC)[C@@H](O)[C@H](O)[C@H]2O)[C@H](O)[C@@H](O)[C@@H]1O [Production Example F-12, 6-O-[(2R,3R)-2-butyl-3-hydroxyoctanoyl]-6′-O-[(2S,3S)-2-butyl-3-hydroxyoctanoyl]-α,α′-trehalose]
